Activity calls are given as the source filed them. The rule behind the calls is not given here.
Experiments:
THP-1 [1] = assay: Anti-inflammatory activity in LPS-treated human THP-1 cells assessed as decrease in phosphorylated I-kappaB-alpha level at 10 uM pretreated for 1 hr followed by LPS treatment for 6 hrs by Western blot analysis; assay type: functional, cell-based; settings: time 7.0 hrs
THP-1 [2] = assay: Anti-inflammatory activity in human THP-1 cells assessed as decrease in LPS-induced phosphorylated p65 level pretreated for 1 hr followed by LPS treatment for 6 hrs by Western blot analysis; assay type: functional, cell-based; settings: dose 1-10 µM, time 7.0 hrs
THP-1 [3] = assay: Anti-inflammatory activity in human THP-1 cells assessed as decrease in LPS-induced NLRP3 level at 1 to 10 uM pretreated for 1 hr followed by LPS/ATP treatment for 6 hrs by Western blot analysis; assay type: functional, cell-based; settings: dose 1-10 µM, time 7.0 hrs
THP-1 [4] = assay: Anti-inflammatory activity in human THP-1 cells assessed as decrease in LPS-induced P20 level at 1 to 10 uM pretreated for 1 hr followed by LPS/ATP treatment for 6 hrs by Western blot analysis; assay type: functional, cell-based; settings: dose 1-10 µM, time 7.0 hrs
THP-1 [5] = assay: Anti-inflammatory activity in human THP-1 cells assessed as decrease in LPS-induced IL-1beta level at 1 to 10 uM pretreated for 1 hr followed by LPS/ATP treatment for 6 hrs by Western blot analysis; assay type: functional, cell-based; settings: dose 1-10 µM, time 7.0 hrs
Mus musculus [6] = assay: Anti-colitis activity in ICR mouse model assessed as reversal of DSS-induced colon shortening administered intragastrically for 9 days consecutively; assay type: functional, organism-based; settings: route ig, time 9.0 day
Mus musculus [7] = assay: Anti-colitis activity in ICR mouse model assessed as reversal of DSS-induced splenomegaly at 15 to 60 mg/kg, IG treated for 9 days consecutively; assay type: functional, organism-based; settings: dose 15-60 mg/kg, time 9.0 day
[8] = Toxicity in ICR mouse assessed as change in body weight at 300 mg/kg, IG measured for 9 days; assay type: organism-based; settings: in vivo, po, 216 h, time 9 day
[9] = Toxicity in ICR mouse assessed as change in liver index at 300 mg/kg, IG measured for 9 days; assay type: organism-based; settings: in vivo, po, 216 h, time 9 day
[10] = Toxicity in ICR mouse assessed as change in kidney index at 300 mg/kg, IG measured for 9 days; assay type: organism-based; settings: in vivo, po, 216 h, time 9 day
[11] = Tmax in ICR mouse at 15 mg/kg, IG measured for 12 hrs by LC-MS/MS analysis; assay type: ADME, organism-based; settings: in vivo, po
[12] = Half life in ICR mouse at 15 mg/kg, IG measured for 12 hrs by LC-MS/MS analysis; assay type: ADME, organism-based; settings: ICR, in vivo, po
[13] = Volume of distribution in ICR mouse at 15 mg/kg, IG measured for 12 hrs by LC-MS/MS analysis; assay type: ADME, organism-based; settings: in vivo, po
[14] = Tmax in colon of ICR mouse at 15 mg/kg, IG measured for 12 hrs by LC-MS/MS analysis; assay type: ADME, organism-based; settings: po
[15] = Cmax in colon of ICR mouse at 15 mg/kg, IG measured for 12 hrs by LC-MS/MS analysis; assay type: ADME, organism-based; settings: po
[16] = Volume of distribution in colon of ICR mouse at 15 mg/kg, IG measured for 12 hrs by LC-MS/MS analysis; assay type: ADME, organism-based; settings: in vivo, po
[17] = Tmax in Sprague-Dawley rat administered as hydroxypropyl-beta-cyclodextrin at 20 mg/kg, IG measured for 12 hrs by LC-MS/MS analysis; assay type: ADME, organism-based; settings: in vivo, po
[18] = Half life in Sprague-Dawley rat administered as hydroxypropyl-beta-cyclodextrin at 20 mg/kg, IG measured for 12 hrs by LC-MS/MS analysis; assay type: ADME, organism-based; settings: in vivo, po
[19] = AUC (0 to t) in Sprague-Dawley rat administered as hydroxypropyl-beta-cyclodextrin at 20 mg/kg, IG measured for 12 hrs by LC-MS/MS analysis; assay type: ADME, organism-based; settings: in vivo, po
[20] = Stability in mouse liver microsomes assessed as half life at 10 uM preincubated for 5 mins followed by NADPH addition measured for 10 to 480 mins by LC-MS/MS analysis; assay type: ADME, Microsome; settings: time 15-485 min
[21] = Stability in mouse liver microsomes assessed as intrinsic clearance at 10 uM preincubated for 5 mins followed by NADPH addition measured for 10 to 480 mins by LC-MS/MS analysis; assay type: ADME, Microsome; settings: time 15-485 min
THP-1 [22] = assay: Anti-inflammatory activity in human THP-1 cells assessed as decrease in LPS-induced IL-6 level at 10 uM pretreated for 1 hr followed by LPS treatment for 24 hrs in presence of DADA by ELISA; assay type: functional, cell-based; settings: time 25.0 hrs
THP-1 [23] = assay: Anti-inflammatory activity in human THP-1 cells assessed as decrease in LPS-induced IL-1beta level at 10 uM pretreated for 1 hr followed by LPS treatment for 24 hrs in presence of DADA by ELISA; assay type: functional, cell-based; settings: time 25.0 hrs
Mus musculus [24] = assay: Anti-colitis activity in ICR mouse model assessed as decrease in DSS-induced DAI score at 15 to 60 mg/kg, IG treated for 8 days consecutively; assay type: functional, organism-based; settings: dose 15-60 mg/kg, time 8.0 day
Mus musculus [25] = assay: Anti-colitis activity in ICR mouse model assessed as […] DSS-induced colon length at 15 to 60 mg/kg, IG treated for 8 days consecutively; assay type: functional, organism-based; settings: dose 15-60 mg/kg, time 8.0 day
Mus musculus [26] = assay: Anti-colitis activity in ICR mouse model assessed as decrease in DSS-induced epithelial cell injury in colon tissue at 60 mg/kg, IG treated for 8 days consecutively in presence of DADA by H and E staining based analysis; assay type: functional, organism-based; settings: time 8.0 day
Mus musculus [27] = assay: Anti-colitis activity in ICR mouse model assessed as increase in DSS-reduced pyruvate level at 60 mg/kg, IG treated for 8 days consecutively; assay type: functional, organism-based; settings: time 8.0 day
Mus musculus [28] = assay: Anti-colitis activity in ICR mouse model assessed as decrease in DSS-induced pyruvate carboxylase level at 60 mg/kg, IG treated for 8 days consecutively in presence of DADA; assay type: functional, organism-based; settings: time 8.0 day
Mus musculus [29] = assay: Anti-colitis activity in ICR mouse model assessed as increase in DSS-reduced pyruvate level at 60 mg/kg, IG treated for 8 days consecutively in presence of DADA; assay type: functional, organism-based; settings: time 8.0 day
Mus musculus [30] = assay: Anti-colitis activity in ICR mouse model assessed as decrease in DSS-induced I-kappaB-alpha degradation in colon tissue at 60 mg/kg, IG treated for 8 days consecutively by Western blot analysis; assay type: functional, organism-based; settings: time 8.0 day
THP-1 [31] = assay: cells; settings: Homo sapiens, THP-1, 24 h
Description: Cytotoxicity against human THP-1 cells assessed as inhibition of cell viability incubated for 24 hrs by CCK8 assay

In the case of C=C(C)[C@@H]1CC[C@]2(C(=O)NCCCCCC(=O)OC)CC[C@]3(C)[C@H](CC[C@@H]4[C@@]5(C)CC[C@H](O[C@@H]6OC[C@H](O)[C@H](O)[C@H]6O[C@@H]6O[C@@H](C)[C@H](O)[C@@H](O)[C@H]6O)[C@@](C)(CO)[C@@H]5CC[C@]43C)[C@@H]12, the Activity (THP-1 [1]) is reported as “Active”, the Activity (THP-1 [2]) is reported as “Dose-Dependent Effect” and the Activity (THP-1 [3]) is reported as “Active”. For the same compound, the Activity (THP-1 [4]) was “Active”, the Activity (THP-1 [5]) was “Active” and the Activity (Mus musculus [6]) was “Dose-Dependent Effect”. For the same compound, the Activity (Mus musculus [7]) was “Active”, the Activity [8] was “Non-Toxic” and the Activity [9] was “Non-Toxic”. For the same compound, the Activity [10] was “Non-Toxic”, the Tmax [11] was 0.96 h and the half-life [12] was 2.46 h. It also gave a Vd [13] of 2867.15 L/kg, a Tmax [14] of 1.58 h and a Cmax [15] of 1110 ng/mL. It also gave a Vd [16] of 97.34 L/kg, a Tmax [17] of 0.5 h and a t1/2 [18] of 1.38 h. The AUCt [19] was 223.22 ng·h/mL, the t1/2 [20] was 6.46 min and the CLH [21] was 6.46 µL/min/mg. For the same compound, the Activity (THP-1 [22]) was “inactive”, the Activity (THP-1 [23]) was “inactive” and the Activity (Mus musculus [24]) was “Active”. The Activity (Mus musculus [25]) was “Active”, the Activity (Mus musculus [26]) was “inactive” and the Activity (Mus musculus [27]) was “Active”. The Activity (Mus musculus [28]) was “inactive”, the Activity (Mus musculus [29]) was “inactive” and the Activity (Mus musculus [30]) was “Active”. For the same compound, the IC50 (THP-1 [31]) was no less than 80 µM.

Reference: ChEMBL document CHEMBL5543173, “Discovery of a New Anti-Inflammatory Agent from Anemoside B4 Derivatives and Its Therapeutic Effect on Colitis by Targeting Pyruvate Carboxylase” (J Med Chem, 2024)
